Reference: patent US7872014B2, “Anaplastic lymphoma kinase modulators and methods of use” (Exelixis, Inc., priority 2003, dated 2011)

These molecules were tested against T1, ALK (baculovirus expressed human ALK kinase domain F1098-K1410) (Homo sapiens, UniProt Q9UM73) (assay: Luciferase-Coupled Chemiluminescent Kinase assay (LCCA), ALK biochemical activity). Conditions: inhibition of ALK; mean values; 1 μM ATP, 4 μM poly-AEKY, 12 nM ALK, 2 hours ambient temperature.
T1 construct: baculovirus expressed human ALK kinase domain F1098-K1410; made in house
Protocol: ALK biochemical activity was assessed using a Luciferase-Coupled Chemiluminescent Kinase assay (LCCA) format in which kinase activity was measured as the percent ATP remaining following the kinase reaction. ATP remaining after the kinase reaction was detected by luciferase-luciferin-coupled chemiluminescence.
The reaction was initiated by mixing test compounds, 1 μM ATP, 4 μM poly-AEKY and 12 nM ALK (baculovirus expressed human ALK kinase domain F1098-K1410) in a 20 μL assay buffer ([…] pH 7.5, 10 mM MgCl2, 0.02% Triton X-100, 100 mM DTT, 2 mM MnCl2). The mixture was incubated at ambient temperature for 2 hours after which 20 μL luciferase-luciferin mix was added and the chemiluminescent signal read using a Wallac Victor^2 reader. The luciferase-luciferin mix consists of 50 mM HEPES, pH 7.8, 8.5 μg/mL oxalic acid (pH 7.8), 5 (or 50) mM DTT, 0.4% Triton X-100, 0.25 mg/mL coenzyme A, 63 μM AMP, 28 μg/mL luciferin and 40,000 units of light/mL luciferase.
Consumption of ATP by ALK can thus be quantified and utilized as a measure of inhibition of ALK activity by compounds described herein. By employing serial dilutions of compounds to be tested, the ability of test compounds to inhibit ALK activity can be determined.

T1 sequence (Q9UM73 1098-1410): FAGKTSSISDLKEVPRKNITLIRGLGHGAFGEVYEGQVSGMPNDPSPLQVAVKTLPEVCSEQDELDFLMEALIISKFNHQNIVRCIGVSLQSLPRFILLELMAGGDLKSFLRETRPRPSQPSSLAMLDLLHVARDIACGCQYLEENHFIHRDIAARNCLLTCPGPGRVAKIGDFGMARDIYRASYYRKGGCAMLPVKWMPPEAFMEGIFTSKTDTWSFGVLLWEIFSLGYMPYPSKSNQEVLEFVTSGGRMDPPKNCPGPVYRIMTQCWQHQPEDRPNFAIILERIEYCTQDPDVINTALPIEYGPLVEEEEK

SMILES | IC50
COc1cc2c(cc1F)c(-c1ccc(O)cc1)nc1[nH]nc(C)c12 [Example 109, 4-[7-fluoro-1-methyl-8-(methyloxy)-3H-pyrazolo[3,4-c]isoquinolin-5-yl]phenol] | 0.1 to 0.999 µM
COCCOc1ccc2c(-c3ccc(O)c(Cl)c3)nc3[nH]nc(C)c3c2c1OCCOC [Example 110, 2-chloro-4-(1-methyl-8,9-bis{[2-(methyloxy)ethyl]oxy}-3H-pyrazolo[3,4-c]isoquinolin-5-yl)phenol] | ≤ 0.099 µM
COCCOc1ccc2c(-c3ccc(O)c(Br)c3)nc3[nH]nc(C)c3c2c1OCCOC [Example 111, 2-bromo-4-(1-methyl-8,9-bis{[2-(methyloxy)ethyl]oxy}-3H-pyrazolo[3,4-c]isoquinolin-5-yl)phenol] | ≤ 0.099 µM
COCCOc1c(OC)ccc2c(-c3ccc(O)c(Cl)c3)nc3[nH]nc(C)c3c12 [Example 112, 2-chloro-4-(1-methyl-8-(methyloxy)-9-{[2-(methyloxy)ethyl]oxy}-3H-pyrazolo[3,4-c]isoquinolin-5-yl)phenol] | ≤ 0.099 µM
COCCOc1c(OC)ccc2c(-c3ccc(O)c(Br)c3)nc3[nH]nc(C)c3c12 [Example 113, 2-bromo-4-(1-methyl-8-(methyloxy)-9-{[2-(methyloxy)ethyl]oxy}-3H-pyrazolo[3,4-c]isoquinolin-5-yl)phenol] | ≤ 0.099 µM
COc1cc2c(-c3ccc(O)cc3F)nc3[nH]nc(C)c3c2cc1OC [Example 114, 3-fluoro-4-[1-methyl-7,8-bis(methyloxy)-3H-pyrazolo[3,4-c]isoquinolin-5-yl]phenol] | ≤ 0.099 µM
COCCOc1cc2c(cc1OC)c(-c1ccc(O)c(Cl)c1)nc1[nH]nc(C)c12 [Example 115, 2-chloro-4-(1-methyl-7-(methyloxy)-8-{[2-(methyloxy)ethyl]oxy}-3H-pyrazolo[3,4-c]isoquinolin-5-yl)phenol] | ≤ 0.099 µM
COCCOc1cc2c(cc1OC)c(-c1ccc(O)c(Br)c1)nc1[nH]nc(C)c12 [Example 116, 2-bromo-4-(1-methyl-7-(methyloxy)-8-{[2-(methyloxy)ethyl]oxy}-3H-pyrazolo[3,4-c]isoquinolin-5-yl)phenol] | ≤ 0.099 µM
COCCOc1cc2c(-c3ccc(O)c(Cl)c3)nc3[nH]nc(C)c3c2cc1OCCOC [Example 117, 2-chloro-4-(1-methyl-7,8-bis{[2-(methyloxy)ethyl]oxy}-3H-pyrazolo[3,4-c]isoquinolin-5-yl)phenol] | 0.1 to 0.999 µM
COCCOc1cc2c(-c3ccc(O)c(Br)c3)nc3[nH]nc(C)c3c2cc1OCCOC [Example 118, 2-bromo-4-(1-methyl-7,8-bis{[2-(methyloxy)ethyl]oxy}-3H-pyrazolo[3,4-c]isoquinolin-5-yl)phenol] | 0.1 to 0.999 µM
COCCOc1cc(F)c2c(-c3ccc(O)cc3)nc3[nH]nc(C)c3c2c1F [Example 120, 4-(6,9-difluoro-1-methyl-8-{[2-(methyloxy)ethyl]oxy}-3H-pyrazolo[3,4-c]isoquinolin-5-yl)phenol] | ≤ 0.099 µM
COc1cc2c(-c3cc(Cl)c(O)cc3F)nc3[nH]nc(C)c3c2cc1OC [Example 121, 2-chloro-5-fluoro-4-[1-methyl-7,8-bis(methyloxy)-3H-pyrazolo[3,4-c]isoquinolin-5-yl]phenol] | ≤ 0.099 µM
COc1cc2c(-c3cc(Br)c(O)cc3F)nc3[nH]nc(C)c3c2cc1OC [Example 122, 2-bromo-5-fluoro-4-[1-methyl-7,8-bis(methyloxy)-3H-pyrazolo[3,4-c]isoquinolin-5-yl]phenol] | ≤ 0.099 µM
COc1cc2c(-c3ccc(O)cc3)cc3[nH]nc(C)c3c2c(F)c1OC [Example 123, 4-[9-fluoro-1-methyl-7,8-bis(methyloxy)-3H-benzo[e]indazol-5-yl]phenol] | 0.1 to 0.999 µM
COCCOc1cc2c(cc1OC)c(-c1ccc(O)cc1F)nc1[nH]nc(C)c12 [Example 125, 3-fluoro-4-(1-methyl-7-(methyloxy)-8-{[2-(methyloxy)ethyl]oxy}-3H-pyrazolo[3,4-c]isoquinolin-5-yl)phenol] | ≤ 0.099 µM
COCCOc1cc(F)c2c(-c3ccc(O)cc3F)nc3[nH]nc(C)c3c2c1F [Example 126, 4-(6,9-difluoro-1-methyl-8-{[2-(methyloxy)ethyl]oxy}-3H-pyrazolo[3,4-c]isoquinolin-5-yl)-3-fluorophenol] | ≤ 0.099 µM
COCCOc1cc(F)c2c(-c3ccc(O)c(Cl)c3)nc3[nH]nc(C)c3c2c1F [Example 127, 2-chloro-4-(6,9-difluoro-1-methyl-8-{[2-(methyloxy)ethyl]oxy}-3H-pyrazolo[3,4-c]isoquinolin-5-yl)phenol] | ≤ 0.099 µM

SMILES | IC50
CCOc1cc2c(cc1OC)c(-c1ccc(O)c(Cl)c1)nc1[nH]nc(C)c12 [Example 128, 2-chloro-4-[8-(ethyloxy)-1-methyl-7-(methyloxy)-3H-pyrazolo[3,4-c]isoquinolin-5-yl]phenol] | 0.1 to 0.999 µM
COc1cc2c(c(-c3ccc(O)c(Cl)c3)nc3[nH]nc(C)c32)c(Cl)c1OC [Example 129, 2-chloro-4-[6-chloro-1-methyl-7,8-bis(methyloxy)-3H-pyrazolo[3,4-c]isoquinolin-5-yl]phenol] | 0.1 to 0.999 µM
COCCOc1ccc2c(-c3ccc(O)cc3F)nc3[nH]nc(C)c3c2c1OC [Example 130, 3-fluoro-4-(1-methyl-9-(methyloxy)-8-{[2-(methyloxy)ethyl]oxy}-3H-pyrazolo[3,4-c]isoquinolin-5-yl)phenol] | ≤ 0.099 µM
COCCOc1cc2c(cc1C)c(-c1ccc(O)c(Cl)c1)nc1[nH]nc(C)c12 [Example 131, 2-chloro-4-(1,7-dimethyl-8-{[2-(methyloxy)ethyl]oxy}-3H-pyrazolo[3,4-c]isoquinolin-5-yl)phenol] | ≤ 0.099 µM
COCCOc1cc2c(c(-c3ccc(O)cc3F)nc3[nH]nc(C)c32)c(F)c1OC [Example 132, 3-fluoro-4-(6-fluoro-1-methyl-7-(methyloxy)-8-{[2-(methyloxy)ethyl]oxy}-3H-pyrazolo[3,4-c]isoquinolin-5-yl)phenol] | ≤ 0.099 µM
COc1cc2c(-c3ccc(O)c(Cl)c3)nc3[nH]nc(C)c3c2cc1OC(C)C [Example 133, 2-chloro-4-[1-methyl-8-[(1-methylethyl)oxy]-7-(methyloxy)-3H-pyrazolo[3,4-c]isoquinolin-5-yl]phenol] | ≤ 0.099 µM
COc1cc2c(-c3ccc(O)c(Cl)c3)nc3[nH]nc(C)c3c2cc1OCC(C)C [Example 134, 2-chloro-4-{1-methyl-7-(methyloxy)-8-[(2-methylpropyl)oxy]-3H-pyrazolo[3,4-c]isoquinolin-5-yl}phenol] | 0.1 to 0.999 µM
COCCOc1cc2c(cc1OC)c(-c1cc(Br)c(O)cc1F)nc1[nH]nc(C)c12 [Example 135, 2-bromo-5-fluoro-4-(1-methyl-7-(methyloxy)-8-{[2-(methyloxy)ethyl]oxy}-3H-pyrazolo[3,4-c]isoquinolin-5-yl)phenol] | ≤ 0.099 µM
COc1cc2c(-c3ccc(O)c(Cl)c3)nc3[nH]ncc3c2cc1OC [Example 136, 4-[7,8-bis(methyloxy)-3H-pyrazolo[3,4-c]isoquinolin-5-yl]-2-chlorophenol] | 0.1 to 0.999 µM
COc1cc2c(-c3ccc(O)c(Cl)c3)nc3[nH]nc(C(F)(F)F)c3c2cc1OC [Example 137, 4-[7,8-bis(methyloxy)-1-(trifluoromethyl)-3H-pyrazolo[3,4-c]isoquinolin-5-yl]-2-chlorophenol] | 0.1 to 0.999 µM
COCc1n[nH]c2nc(-c3ccc(O)c(Cl)c3)c3cc(OC)c(OC)cc3c12 [Example 138, 4-{7,8-bis(methyloxy)-1-[(methyloxy)methyl]-3H-pyrazolo[3,4-c]isoquinolin-5-yl}-2-chlorophenol] | 0.1 to 0.999 µM
Cc1n[nH]c2nc(-c3ccc(O)c(Cl)c3)c3cc4c(cc3c12)OCO4 [Example 139, 2-chloro-4-(1-methyl-3H-[1,3]dioxolo[4,5-g]pyrazolo[3,4-c]isoquinolin-5-yl)phenol] | ≤ 0.099 µM
Cc1n[nH]c2nc(-c3ccc(O)c(Cl)c3)c3cc4c(cc3c12)OCCO4 [Example 140, 2-chloro-4-(1-methyl-8,9-dihydro-3H-[1,4]dioxino[2,3-g]pyrazolo[3,4-c]isoquinolin-5-yl)phenol] | ≤ 0.099 µM
Cc1n[nH]c2nc(-c3ccc(O)c(Cl)c3)c3cc4c(cc3c12)OCCCO4 [Example 141, 2-chloro-4-(1-methyl-9,10-dihydro-3H,8H-[1,4]dioxepino[2,3-g]pyrazolo[3,4-c]isoquinolin-5-yl)phenol] | ≤ 0.099 µM
COc1cc2c(cc1OC(F)F)c(-c1ccc(O)c(Cl)c1)nc1[nH]nc(C)c12 [Example 142, 2-chloro-4-[7-[(difluoromethyl)oxy]-1-methyl-8-(methyloxy)-3H-pyrazolo[3,4-c]isoquinolin-5-yl]phenol] | ≤ 0.099 µM
COCCOc1cc(F)c2c(-c3cc(Cl)c(O)cc3F)nc3[nH]nc(C)c3c2c1OC [Example 143, 2-chloro-5-fluoro-4-(6-fluoro-1-methyl-9-(methyloxy)-8-{[2-(methyloxy)ethyl]oxy}-3H-pyrazolo[3,4-c]isoquinolin-5-yl)phenol] | ≤ 0.099 µM
COCCOc1cc(F)c2c(-c3cc(Cl)c(O)cc3F)nc3[nH]nc(C)c3c2c1F [Example 144, 2-chloro-4-(6,9-difluoro-1-methyl-8-{[2-(methyloxy)ethyl]oxy}-3H-pyrazolo[3,4-c]isoquinolin-5-yl)-5-fluorophenol] | ≤ 0.099 µM
